For this experiment, the target named is T1, cloned rat PDE10A full-length enzyme (Rattus norvegicus, UniProt Q9QYJ6).
T1 construct: cloned rat PDE10A full-length enzyme grown in transfected Sf9 insect cells; made in house; host or cells: Sf9 insect cells
T1 sequence (Q9QYJ6 1-794): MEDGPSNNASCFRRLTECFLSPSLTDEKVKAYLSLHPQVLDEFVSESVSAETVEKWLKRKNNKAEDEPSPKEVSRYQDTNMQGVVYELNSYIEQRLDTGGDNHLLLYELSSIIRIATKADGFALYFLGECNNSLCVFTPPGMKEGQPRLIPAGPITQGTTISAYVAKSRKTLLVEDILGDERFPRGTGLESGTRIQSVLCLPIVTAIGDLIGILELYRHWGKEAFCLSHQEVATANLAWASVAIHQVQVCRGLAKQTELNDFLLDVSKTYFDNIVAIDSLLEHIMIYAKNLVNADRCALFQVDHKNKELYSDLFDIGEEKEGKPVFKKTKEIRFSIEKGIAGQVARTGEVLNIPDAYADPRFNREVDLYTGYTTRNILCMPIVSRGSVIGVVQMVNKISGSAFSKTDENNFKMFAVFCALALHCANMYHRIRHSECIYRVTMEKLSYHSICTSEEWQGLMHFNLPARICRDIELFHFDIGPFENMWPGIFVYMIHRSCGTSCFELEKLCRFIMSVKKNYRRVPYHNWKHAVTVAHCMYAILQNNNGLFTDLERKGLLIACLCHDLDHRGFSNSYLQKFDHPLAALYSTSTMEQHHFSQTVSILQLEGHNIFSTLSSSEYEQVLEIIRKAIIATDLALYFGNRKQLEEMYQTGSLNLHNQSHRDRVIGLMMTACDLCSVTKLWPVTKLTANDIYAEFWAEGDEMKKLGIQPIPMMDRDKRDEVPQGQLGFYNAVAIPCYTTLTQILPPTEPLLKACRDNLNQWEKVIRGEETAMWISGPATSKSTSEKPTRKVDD
In words: PDE10 enzyme inhibition, [3H]cAMP scintillation proximity assay. Format: biochemical. As to conditions: rat PDE10A from Sf9 cells, 20 nM [3H]cAMP, SPA beads, 20 minute incubation at room temperature. The protocol: Compounds of the present invention were evaluated for ability to inhibit PDE10 enzyme with the following Assay procedure
The enzyme used in the procedure was cloned rat PDE10A full-length enzyme grown in transfected Sf9 insect cells. Cloned enzyme was extracted from homogenized cell pellets and stored frozen in homogenizing buffer until use. Compounds were initially dissolved in 100% DMSO and diluted out in 20 percent DMSO/water solution. Final concentration of DMSO in the assay was 2 percent as compounds were tested in triplicate in 96 well plates. Compound solution was placed in well, then tritiated cyclic AMP (New England Nuclear NET275) in assay buffer was added at 20 nM concentration. Then PDE10 enzyme in assay buffer of 50 mM Tris, 8.3 mM MgCl2, pH 7.5 at room temperature was added for a final assay volume of 100 ul. Concentration of enzyme was added such that less than 10 percent of [3H]cAMP at 20 nM was converted to detectable end product, [3H]AMP bound to SPA (Scintillation Proximity Assay) beads. Phosphodiesterase scintillation proximity yttrium silicate beads from Amersham Biosciences (RPNQ0150) were added (50 ul at 20 mg/ml) after a 20 minute incubation at room temperature. Zinc sulphate as a component of the beads stops the phosphodiesterase reaction.
Non-specific binding to SPA beads was determined by addition of 1 uM papaverine. Total conversion by enzyme without inhibitor of [3H]cAMP to [3H]AMP, as detected by scintillation of [3H]AMP bound to yttrium silicate beads, was determined in the presence of vehicle-only.
In general terms: Scintillation proximity formats need no separation of bound from free tracer.

Counter-ions that a name gives are not always drawn.

This note sets out measurements from patent US20080090834A1, “SELECTIVE AZOLE PDE10A INHIBITOR COMPOUNDS” (Pfizer Inc, priority 2006, published 2008).

With `COc1nc2cccnc2n1-c1ccc(-c2nc(-c3ccccn3)cn2-c2ccc(C)nc2)cc1` [Example 60, 2-methoxy-3-(4-(1-(6-methylpyridin-3-yl)-4-(pyridin-2-yl)-1H-imidazol-2-yl)phenyl)-3H-imidazo[4,5-b]pyridine], the IC50 – broadly, the concentration needed to halve the response being measured – came out at 0.388 nM. Compound `Cc1ccc(-n2cc(-c3ncc(C)s3)nc2-c2ccc(-n3ccc4cccnc43)cc2)cn1` [Example 61, 1-(4-(1-(6-methylpyridin-3-yl)-4(5-methylthiazol-2-yl)-1H-imidazol-2-yl)phenyl)-1H-pyrrolo[2,3-b]pyridine] registered an IC50 of 54.8 nM. To `Clc1ccc(-c2cn(-c3cncnc3)c(-c3ccc(-n4ccc5cccnc54)cc3)n2)s1` [Example 62, 1-(4-(4-(5-chlorothiophen-2-yl)-1-(pyrimidin-5-yl)-1H-imidazol-2-yl)phenyl)-1H-pyrrolo[2,3-b]pyridine] belongs 65.1 nM. For the compound `Cc1csc(-c2cn(-c3cncnc3)c(-c3ccc(-n4ccc5cccnc54)cc3)n2)n1` [Example 63], the IC50 was 13.8 nM. Against the preceding compound, the IC50 is about 4.7-fold lower. Consider `Cc1ccc(-n2cc(-c3ccc(F)s3)nc2-c2ccc(-n3ccc4cccnc43)cc2)cn1` [Example 64, 1-(4-(4-(5-fluorothiophen-2-yl)-1-(6-methylpyridin-3-yl)-1H-imidazol-2-yl)phenyl)-1H-pyrrolo[2,3-b]pyridine], for which the IC50 was 6.59 nM.

With `Cc1cc(-n2cc(-c3nccn3C)nc2-c2ccc(-n3ccc4cccnc43)cc2)ccn1` [Example 66, 1-(4-(4-(1-methyl-1H-imidazol-2-yl)-1-(2-methylpyridin-4-yl)-1H-imidazol-2-yl)phenyl)-1H-pyrrolo[2,3-b]pyridine], it took 112 nM to reach half-maximal inhibition (IC50). This IC50 lies about 17-fold higher than the previous one. To `Cn1ccnc1-c1cn(-c2cncnc2)c(-c2ccc(-n3ccc4cccnc43)cc2)n1` [Example 67] belongs 274 nM. As for `Cc1cc(-n2cc(-c3cccnc3)nc2-c2ccc(-n3ccc4cccnc43)cc2)ccn1` [Example 68, 1-(4-(1-(2-methylpyridin-4-yl)-4-(pyridin-3-yl)-1H-imidazol-2-yl)phenyl)-1H-pyrrolo[2,3-b]pyridine bis-TFA salt], the IC50 was determined as 5.1 nM. This IC50 lies about 54-fold lower than the previous one.

In the case of `Cc1cc(-n2cc(-c3ccncc3)nc2-c2ccc(-n3ccc4cccnc43)cc2)ccn1` [Example 69, 1-(4-(1-(2-methylpyridin-4-yl-4-(pyridin-4-yl)-1H-imidazol-2-yl)phenyl)-1H-pyrrolo-[2,3-b]pyridinebis-TFA salt], half-maximal inhibition (IC50) was put at 89.7 nM. Turning to `Clc1ccc(-c2ccc(-c3nc(-c4ccccn4)cn3-c3cncnc3)cc2)cc1Cl` [Example 70, 5-(2-(4-(3,4-dichloropheny)phenyl)-4-(pyridin-2-yl)-1H-imidazol-1-yl)pyrimidine], it took 216 nM to reach half-maximal inhibition (IC50). Regarding `Clc1ccc(-c2ccc(-c3nc(-c4ccccn4)cn3-c3cncnc3)cc2)cc1` [Example 71, 5-(2-(4-(4-chlorophenyl)phenyl)-4-(pyridin-2-yl)-1H-imidazol-1-yl)pyrimidine], the IC50 is 67.6 nM. Take `c1ccc(-c2cn(-c3cncnc3)c(-c3ccc(-c4cccnc4)cc3)n2)nc1` [Example 72]: the IC50 was found to be 160 nM. In turn, `c1ccc(-c2cn(-c3cncnc3)c(-c3ccc(-c4ccncc4)cc3)n2)nc1` [Example 73] yielded a 50% inhibitory concentration (IC50) of 74.3 nM.

With `Cc1ccc(-n2cc(-c3ccccn3)nc2-c2ccc(-n3ccc4cncnc43)cc2)cn1` [Example 74, 7-(4-(1-(6-methylpyridin-3-yl)-4-(pyridin-2-yl)-1H-imidazol-2-yl)phenyl)-7H-pyrrolo[2,3-d]pyrimidine], it took 2.27 nM to reach half-maximal inhibition (IC50). As for `Cc1ccc(-n2cc(-c3ccccn3)nc2-c2ccc(-n3cc(C)c4nccnc43)cc2)cn1` [Example 75], the IC50 was determined as 2.41 nM. `c1cncc(-n2cc(-c3nc4ccccc4s3)nc2-c2ccc(-n3ccc4cccnc43)cc2)c1` [Example 76, 1-(4-(4-benzo[d]thiazol-2-yl)-1-(pyridin-3-yl)-1H-b]pyridine] displayed an IC50 of 544 nM. This IC50 is about 230-fold higher than that of the compound before.

In the case of `COc1ccnc2c(-c3ccc(-c4nc(-c5ccccn5)cn4-c4cccnc4)cc3)cc(C)cc12` [Example 77], it took 156 nM to reach half-maximal inhibition (IC50).

The compound `c1ccc(-c2cn(-c3cccnc3)c(-c3ccc(-c4nccc5cccnc45)cc3)n2)nc1` [Example 78] gave an IC50 of 3.26 nM. Against the preceding compound, the IC50 is about 48-fold lower.

Consider `c1ccc(-c2cn(-c3cccnc3)c(-c3ccc(-c4cccc5cccnc45)cc3)n2)nc1` [Example 79, 8-(4-(4-(pyridin-2-yl)-1-(pyridin-3-yl)-1H-imidazol-2-yl)phenyl)quinoline], for which the IC50 stood at 3.94 nM. As for `COc1cc(-c2ccc(-c3nc(-c4ccccn4)cn3-c3cccnc3)cc2)c2ncccc2c1` [Example 80, 6-methoxy-8-(4-(4-(pyridin-2-yl)-1-(pyridin-3-yl)-1H-imidazol-2-yl)phenyl)quinoline], half-maximal inhibition (IC50) required 0.794 nM.

`Cc1ccc(-n2cc(-c3nccs3)nc2-c2ccc(-n3c(C(F)F)nc4cccnc43)cc2)cn1` [Example 84] showed an IC50 of 0.73 nM. On to `Cc1nc(-c2cn(-c3cncnc3)c(-c3ccc(-n4ccc5cccnc54)cc3)n2)sc1C` [Example 85], for which the IC50 came to 74.2 nM. This IC50 lies about 100-fold higher than the previous one. `Cc1ccc(-n2cc(-c3nccs3)nc2-c2ccc(-n3c(C(F)(F)F)nc4cccnc43)cc2)cn1` [Example 87] yielded an IC50 below 1000 nM. As for `COc1nc2cccnc2n1-c1ccc(-c2nc(-c3nc(C)cs3)cn2-c2ccc(C)nc2)cc1` [Example 90, 2-methoxy-3-(4-(1-(6-methylpyridin-3-yl)-4-(4-methylthiazol-2-yl)-1H-imidazol-2-yl)phenyl)-3H-imidazol[4,5-b]pyridine], half-maximal inhibition (IC50) was put at 0.287 nM.

`CCCOc1nc2cccnc2n1-c1ccc(-c2nc(-c3ccccn3)cn2-c2ccc(C)nc2)cc1` [Example 91, 3-(4-(1-(6-methylpyridin-3-yl)-4-(pyridin-2-yl)-1H-imidazol-2-yl)phenyl)-2-propoxy-3H-imidazo[4,5-b]pyridine]: the IC50 worked out at 0.741 nM. Against the preceding compound, the IC50 is about 2.6-fold higher. The compound `COc1nc2cccnc2n1-c1ccc(-c2nc(-c3cccs3)cn2-c2ccc(C)nc2)cc1` [Example 93, 2-methoxy-3-(4-(1-(6-methylpyridin-3-yl)-4-(thiophen-2-yl)-1H-imidazol-2-yl)phenyl)-3H-imidazo[4,5-b]pyridine] came in with an IC50 below 0.424 nM. Under `CCOc1nc2cccnc2n1-c1ccc(-c2nc(-c3ccccn3)cn2-c2ccc(C)nc2)cc1` [Example 94, 2-ethoxy-3-(4-(1-(6-methylpyridin-3-yl)-4-(pyridin-2-yl)-1H-imidazol-2-yl)phenyl)-3H-imidazol[4,5-b]pyridine] stands 1.02 nM; under `Cc1ccc(-n2cc(-c3ccccn3)nc2-c2ccc(-n3c(=O)[nH]c4cccnc43)cc2)cn1` [Example 95], 3.91 nM.

`COc1nc2cccnc2n1-c1ccc(-c2nc(-c3cscn3)cn2-c2ccc(C)nc2)cc1` [Example 96, 2-methoxy-3-(4-(1-(6-methylpyridin-3-yl)-4-(thiazol-4-yl)-1H-imidazol-2-yl)phenyl)-3H-imidazo[4,5-b]pyridine] yielded an IC50 of 0.695 nM. This IC50 is about 5.6-fold lower than that of the compound before. Turning to `Cc1ccc(-n2cc(-c3cncs3)nc2-c2ccc(-n3c(C(C)C)nc4cccnc43)cc2)cn1` [Example 97], it took 1.96 nM to reach half-maximal inhibition (IC50). Under `Cc1ccc(-n2cc(-c3cscn3)nc2-c2ccc(-n3c(C(C)C)nc4cccnc43)cc2)cn1` [Example 98, 2-isopropyl-3-(4-(1-(6-methylpyridin-3-yl)-4-(thiazol-4-yl)-1H-imidazol-2-yl)phenyl)-3H-imidazo[4,5-b]pyridine] stands 1.13 nM; under `CCOc1nc2cccnc2n1-c1ccc(-c2nc(-c3cscn3)cn2-c2ccc(C)nc2)cc1` [Example 100, 2-ethoxy-3-(4-(1-(6-methylpyridin-3-yl)-4-(thiazol-4-yl)-1H-imidazol-2-yl)phenyl)-3H-imidazo[4,5-b]pyridine], 1.31 nM. In turn, `COc1ccc(-c2[nH]c(-c3cccs3)nc2-c2ccc(-n3ccc4cc(OC)ccc43)cc2)cc1` [Example 102, 5-methoxy-1-(4-(5-(4-methoxyphenyl)-2-(thiophen-2-yl)-1H-imidazol-4-yl)phenyl)-1H-indole] had an IC50 of 15.8 nM.
